This is an account of results in ChEMBL document CHEMBL1138147, “Respiratory syncytial virus fusion inhibitors. Part 3: Water-soluble benzimidazol-2-one derivatives with antiviral activity in vivo” (Bioorg Med Chem Lett, 2006).

In data set [1] the test system is Cotton rat. Kind of data set: Efficacy in cotton rat measured as reduction in log TCID50 of RSV per gram of lung at 2.0 mg/mL. In kind it is functional, Sigmodon.
Data set [2] deals with Cotton rat. Kind of data set: Efficacy in cotton rat measured as reduction in log TCID50 of RSV per gram of lung at 0.2 mg/mL. The data set is classed as functional, Sigmodon.
Data set [3] has as its system Cotton rat. Kind of data set: Efficacy in cotton measured as reduction in log TCID50 of RSV per gram of lung rat at 0.05 mg/mL. The data set is classed as functional, Sigmodon.
Data set [4] has as its system Cotton rat. Kind of data set: Efficacy in cotton rat measured as reduction in log TCID50 of RSV per gram of lung at 0.01 mg/mL. The data set is classed as functional, Sigmodon.
Data set [5] deals with Respiratory syncytial virus. In words: Antiviral activity against RSV Long strain in human Hep2 cells. The data set is classed as functional, organism-based. Particulars: HEp-2.
In data set [6] the test system is HEp-2. In words: Cytotoxicity against human Hep2 cells infected with RSV Long strain. In kind it is functional.
The nature of data set [7]: Therapeutic index (CC50/EC50) for RSV infected Hep2 cells. Particulars: human, read-out: Ratio CC50/EC50. In kind it is cell-based, HEp-2.
The test system of data set [8] is Cotton rat. Kind of data set: Efficacy in cotton rat measured as reduction in log TCID50 of RSV per gram of lung at 1.0 mg/mL. The data set is classed as functional, Sigmodon.
Data set [9] relates to Cotton rat. Kind of data set: Efficacy in cotton rat measured as reduction in log TCID50 of RSV per gram of lung at 1.6 mg/mL. The data set is classed as functional, Sigmodon.
The subject of data set [10] is Cotton rat. In words: Efficacy in cotton rat measured as reduction in log TCID50 of RSV per gram of lung at 0.5 mg/mL. The data set is classed as functional, Sigmodon.
For data set [11], the system named is Mus musculus. Kind of data set: Efficacy in BALB/c mouse measured as reduction in log TCID50 of RSV per gram of lung at 120 mg/kg, sc. The data set is classed as functional. To be noted: route subcutaneous.
Data set [12] concerns Cotton rat. Kind of data set: Efficacy in cotton rat measured as reduction in log TCID50 of RSV per gram of lung at 0.67 mg/mL. The data set is classed as functional, Sigmodon.

What is called EC50 is the concentration giving half of the maximal effect. A high value points to a less potent agent. As usually defined, the CC50 is the concentration giving 50% cytotoxicity. As to `CC(C)CCn1c(Cn2c(=O)n(Cc3ccc(P(=O)(O)O)cc3)c3ccccc32)nc2ccccc21`, the Efficacy in data set [1] is listed as 2.1; in data set [2] it was 3.5; in [3] it was 4; in data set [4], 4.4. Moreover, the 50% effective concentration (EC50) in [5] is 27 nM. In addition, the CC50 in [6] is more than 175000 nM. Further, the selectivity ratio in data set [7] was 3000.

For `CC(C)CCn1c(Cn2c(=O)n(Cc3ccc(Cn4c(=O)ccn(CC(=O)N[C@@H](CC(=O)O)C(=O)O)c4=O)cc3)c3ccccc32)nc2ccccc21`, the Efficacy in data set [2] is listed as 3.22; in data set [8], 1.83. The same molecule came in with an EC50 in [5] of 8 nM. Also, the cytotoxic concentration (CC50) in data set [6] is more than 106000 nM. The selectivity ratio in data set [7] was more than 13200.

With `CC(C)CCn1c(Cn2c(=O)n(Cc3ccccc3S(=O)(=O)O)c3ccccc32)nc2ccccc21`, in data set [9], the Efficacy is listed as 2.25. Moreover, the concentration giving a half-maximal response (EC50) in [5] was 7 nM. In data set [6], this molecule showed a CC50 of more than 19000 nM. In data set [7], the selectivity ratio is more than 2710.

Consider `CC(C)n1c(=O)n(Cc2nc3ccccc3n2CCc2noc(O)n2)c2ccccc21`, for which the figures for the Efficacy in data set [10] and in data set [11] were 2.1 and 2.55, respectively. The molecule further yielded an EC50 in [5] of 21 nM. In data set [6], the half-maximal cytotoxic concentration (CC50) was 75400 nM. Besides, the selectivity ratio in [7] was determined as 3540.

As for `O=C(O)c1ccc(Cn2c(=O)n(Cc3nc4ccccc4[nH]3)c3ccccc32)cc1`, the Efficacy in data set [12] amounted to 3.6. The same molecule registered an EC50 in data set [5] of 14 nM. In data set [6], this molecule displayed a CC50 of 75500 nM. The selectivity ratio in data set [7] was determined as 5400.
